Laboratory results taken from US11413290B2, “Amorphous solid dispersions of dasatinib and uses thereof” (NANOCOPOEIA, LLC, priority 2020, dated 2022).

Columns and labels:
[1] = dasatinib in crystalline forms; cited from earlier work
[2] = Amorphicity / crystallinity by XRD; format: physicochemical; conditions: Comparative Example; promptly after spray drying and secondary drying
Procedure: The percent of crystallinity was calculated as follows: % crystallinity=area of crystalline peaks/(area of crystalline peaks+amorphous peaks)
Amorphicity and glass transition temperature were assessed using the methodology described in Example 1.

[3] = Assay and total impurities by HPLC (Example 6); format: physicochemical; conditions: Comparative Example; promptly after preparation
Procedure: Assay and total impurities of the ASDs were assessed using either an Agilent 1200 HPLC or a Waters Alliance e2695 HPLC.
L100-55 ASDs and in Table 37 for Dasatinib:METHOCEL E5 ASDs at t=0 and at each stability time point. These reported assay values are corrected for the measured water content of the sample.

[4] = Glass transition temperature by mDSC; conditions: Comparative Example; promptly after preparation
[5] = Water content by coulometric Karl Fischer titration; format: physicochemical; conditions: Comparative Example; promptly after preparation

XRD character [2] | assay value [3] | glass transition temperature (Tg), transition event [4] | Water content [5] | Compound | Biopharmaceutical Classification System (BCS) class [1]
 |  |  |  | Cc1nc(Nc2ncc(C(=O)Nc3c(C)cccc3Cl)s2)cc(N2CCN(CCO)CC2)n1 [dasatinib, N-(2-chloro-6-methylphenyl)-2-[[6-[4-(2-hydroxyethyl)-1-piperazinyl]-2-methyl-4-pyrimidinyl]amino]-5-thiazolecarboxamide] | Class II
exhibited crystalline character | 97.4% | 125.61 °C | 0.81% | Cc1nc(Nc2ncc(C(=O)Nc3c(C)cccc3Cl)s2)cc(N2CCN(CCO)CC2)n1 [spray-dried material of 100% dasatinib] | 
